Data on one substance can be found in US10583119B2, “Compounds, compositions and methods for making the same” (Signum Biosciences, Inc., priority 2008, dated 2020).

In assay [1] the test system is serine 129 phosphorylated alpha-synuclein. Nature of the assay: Dephosphorylation assay of human alpha-synuclein by PP2A and PP1. Type of assay: biochemical. Particulars: Western blot. The method, then: Dephosphorylation Assay of Human a Synuclein by PP2A and PP1. […] PP2A or PP1 (serial dilutions of 200 nM, 100 nM, 50 nM, 25 nM, 12 nM, and O nM as a negative control) were incubated with serine 129 phosphorylated alpha-synuclein in MOPS buffer. The reactions were stopped by adding 5×SDS sample buffer. Levels of phosphorylated-alpha-synuclein were assessed by western blotting using an anti-phospho-Ser 129 antibody. […] Specifically, at 200 nM concentration, PP2A dephosphorylates more than 95% of the serine 129 phosphorylated alpha-synuclein.
(In general: In western blotting, separated proteins are transferred to a membrane and probed.)

The subject of assay [2] is alpha-synuclein phosphorylated at Ser129. The assay is described as follows: Effect of PP2A methylation on alpha-synuclein dephosphorylation. Type of assay: biochemical, human. The method, then:
Concentrated samples of the methylated and unmethylated AC dimer of PP2A were each serially diluted to final concentrations of 200 nM, 100 nM, 50 nM, 25 nM, and 12 nM. A buffer sample (with 0 nM PP2A) was used as the negative control. The dephosphorylation assay and western blotting were performed as described above in Example 31 Western blots were scanned on a Storm Scanner (Molecular Dynamics) and band intensities quantified with Image Quant software. The relative phosphorylation levels were calculated with the following formula: Relative phosphorylation level (%)=Signal of Sample/Signal of Negative Control*100%. Regression curves of relative phosphorylation levels as a function of PP2A concentration were plotted, and the EC50 values for methylated and unmethylated PP2A were estimated using the SigmaPlot program. The EC50 is a measure of phosphatase activity or dephosphorylation activity of PP2A toward phosphorylated alpha-synuclein. Specifically, it is the concentration of the AC dimer required to achieve 50% dephosphorylation of phosphorylated alpha-synuclein. […] Specifically, methylation reduces the EC50 value of PP2A AC dimer from ˜60 nM to ˜20 nM.

Turning to “PP2A: Protein phosphatase 2A, AC dimer (unmethylated or methylated), used as the enzyme dephosphorylating alpha-synuclein”, the “dephosphorylation of serine 129 phosphorylated alpha-synuclein” value in assay [1] (200 nM phosphatase) is listed as “more than 95%”. Besides, in assay [1] (12-200 nM phosphatase), the “dephosphorylation of phosphorylated alpha-synuclein (concentration dependence)” value was “concentration dependent manner”. Further, the EC50 (in general, the concentration giving half of the maximal effect) in assay [2] (methylated AC dimer) was about 20 nM; in assay [2] (unmethylated AC dimer), about 60 nM.
